Experiments:
Experiment in all cases: relative viability (nuclei count vs DMSO), 5 days (fraction); higher = more cells survive
[1] = compound: COc1cc2nccc(Oc3ccc(NC(=O)C4(C(=O)Nc5ccc(F)cc5)CC4)cc3)c2cc1OC [Cabozantinib] + Cc1nc(NC(=O)N2CCC[C@H]2C(N)=O)sc1-c1ccnc(C(C)(C)C(F)(F)F)c1 [Alpelisib] (partner 2 µM)
In short: (§1)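 Nuclei were stained with Hoechst during a one-step fixation (final 0.05% Triton X-100, 1% formaldehyde, 1 ug/ml Hoechst) carried out 5 days after dosing, then counted on 4× images. The cells, lung cancer lines in 1536-well plates, had been dosed by pin tool the day after seeding with one drug alone or a fixed anchor-drug dose plus five library-drug doses (not always all listed) in √10 steps. Relative viability is the nuclei count in treated wells divided by that in vehicle wells, and each value is the median of duplicate plates.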

[2] = compound: COc1cc2nccc(Oc3ccc(NC(=O)C4(C(=O)Nc5ccc(F)cc5)CC4)cc3)c2cc1OC [Cabozantinib] + Nc1ncn([C@H]2C[C@H](O)[C@@H](CO)O2)c(=O)n1 [Decitabine] (partner 2 µM)
In short: as §1

[3] = compound: O[C@@H](COc1cccc2ncccc12)CN1CCN([C@@H]2c3ccccc3[C@@H]3[C@H](c4ccccc42)C3(F)F)CC1 [Zosuquidar] + O=C(CCCCCCC(=O)Nc1ccccc1)NO [Vorinostat] (partner 1 µM)
In short: as §1

[4] = compound: O[C@@H](COc1cccc2ncccc12)CN1CCN([C@@H]2c3ccccc3[C@@H]3[C@H](c4ccccc42)C3(F)F)CC1 [Zosuquidar] + CC(=O)c1c(C)c2cnc(Nc3ccc(N4CCNCC4)cn3)nc2n(C2CCCC2)c1=O [Palbociclib] (partner 0.5 µM)
In short: as §1

Row | Cell Line | relative viability ([1]; first compound 0.02 µM) | relative viability ([1]; first compound 0.06325 µM) | relative viability ([1]; first compound 0.2 µM) | relative viability ([1]; first compound 0.6325 µM) | relative viability ([1]; first compound 2 µM) | relative viability ([2]; first compound 0.02 µM) | relative viability ([2]; first compound 0.06325 µM) | relative viability ([2]; first compound 0.2 µM) | relative viability ([2]; first compound 0.6325 µM) | relative viability ([2]; first compound 2 µM) | relative viability ([3]; first compound 0.01 µM) | relative viability ([3]; first compound 0.03162 µM) | relative viability ([3]; first compound 0.1 µM) | relative viability ([3]; first compound 0.3162 µM) | relative viability ([3]; first compound 1 µM) | relative viability ([4]; first compound 0.01 µM) | relative viability ([4]; first compound 0.03162 µM) | relative viability ([4]; first compound 0.1 µM) | relative viability ([4]; first compound 0.3162 µM) | relative viability ([4]; first compound 1 µM)
1 | HCC-366 | 0.585 | 0.619 | 0.445 | 0.328 | 0.294 | 0.351 | 0.393 | 0.336 | 0.305 | 0.354 | 0.309 | 0.424 | 0.342 | 0.897 | 0.352 | 0.322 | 0.402 | 0.355 | 0.394 | 0.338
2 | LCLC-97TM1 |  | 0.259 | 0.264 | 0.284 | 0.297 | 0.24 | 0.262 | 0.252 | 0.265 | 0.21 | 0.663 | 0.929 |  | 0.73 | 0.777 | 0.227 | 0.274 |  | 0.193 | 0.215
3 | HCC-44 | 0.864 | 0.784 | 0.808 | 0.757 | 0.855 | 0.908 | 0.996 | 0.981 | 1 | 0.987 | 1.1 | 1.18 | 1.18 | 1.12 | 1.05 | 0.974 | 1.04 | 0.944 | 1.02 | 0.956
4 | A-427 | 1.08 | 1.12 | 1.12 | 1.05 | 1.01 | 0.569 | 0.589 | 0.57 | 0.621 | 0.596 | 0.86 | 0.853 | 0.836 | 0.94 | 0.511 | 0.542 | 0.522 | 0.552 | 0.566 | 0.51
5 | NCI-H23 |  | 0.794 | 0.716 | 0.646 | 0.545 |  | 0.348 | 0.337 | 0.303 | 0.327 | 0.536 |  | 0.57 | 0.695 | 0.662 | 0.45 |  | 0.516 | 0.578 | 0.524
6 | NCI-H520 | 0.92 | 0.928 | 0.958 | 0.713 | 0.833 | 0.525 | 0.602 | 0.519 | 0.547 | 0.504 | 0.639 | 0.51 | 0.71 | 0.664 | 0.835 | 0.201 | 0.195 | 0.198 | 0.179 | 0.208
7 | ABC-1 | 0.865 | 1.16 | 1.01 | 1.01 | 0.995 |  | 0.846 | 1.05 | 1.05 | 0.982 | 1.17 | 1.04 | 1 | 1.13 | 0.81 | 0.616 | 0.685 | 0.68 | 0.84 | 0.599
8 | NCI-H1395 | 1.13 | 1.21 | 1.06 | 1.13 | 1.06 | 0.786 | 0.741 | 0.682 | 0.713 | 0.654 | 0.746 | 0.783 |  | 1 | 0.698 | 0.596 | 0.664 |  | 0.64 | 0.549
9 | NCI-H2085 | 1.15 | 1.01 | 0.982 | 0.915 | 0.843 | 0.583 | 0.549 | 0.58 | 0.626 | 0.642 | 0.807 | 0.753 |  | 0.907 | 0.767 | 0.5 | 0.469 |  | 0.508 | 0.484
10 | NCI-H661 | 0.544 | 0.758 | 0.725 | 0.755 | 0.609 | 0.6 | 0.608 | 0.563 | 0.632 | 0.69 | 0.802 | 0.834 | 0.763 | 0.828 | 0.778 | 0.404 | 0.4 | 0.415 | 0.416 | 0.408
11 | NCI-H1944 |  | 0.848 | 0.78 | 0.75 | 0.778 | 0.477 | 0.483 | 0.42 | 0.481 | 0.466 | 0.524 | 0.528 | 0.543 | 0.672 | 0.535 | 0.343 | 0.358 | 0.342 | 0.391 | 0.319
12 | NCI-H2170 | 0.842 | 0.958 | 0.723 | 0.854 | 0.781 | 0.436 | 0.465 | 0.446 | 0.487 | 0.458 | 0.828 | 0.784 | 0.763 | 0.844 | 0.826 | 0.364 | 0.42 | 0.397 | 0.426 | 0.379
13 | NCI-H322M | 0.77 | 0.881 |  | 0.846 | 0.773 | 0.701 | 0.719 | 0.675 | 0.798 | 0.744 | 0.916 | 1.08 | 0.652 | 0.896 | 0.731 | 0.458 | 0.485 | 0.475 | 0.463 | 0.468
14 | LCLC-103H | 1.08 | 0.859 | 0.951 | 0.861 | 0.752 | 0.716 | 0.791 | 0.722 | 0.721 | 0.748 | 0.754 | 0.771 | 0.598 | 0.848 | 0.803 | 0.453 | 0.717 | 0.513 | 0.489 | 0.482
15 | NCI-H647 | 1.2 | 1.43 | 1.37 | 0.956 | 0.535 | 0.383 | 0.534 | 0.441 | 0.433 | 0.391 | 0.623 | 0.593 | 0.667 | 0.814 | 0.518 | 0.386 | 0.406 | 0.452 | 0.377 | 0.361
16 | LK-2 |  | 1.22 | 1.08 | 1.23 | 0.856 | 0.182 | 0.369 | 0.336 | 0.301 | 0.267 | 0.232 | 0.311 | 0.283 | 0.298 | 0.335 | 0.666 | 0.722 | 0.563 | 0.768 | 0.715
17 | NCI-H1755 | 0.993 | 0.919 | 0.882 | 0.877 | 0.764 | 0.729 | 0.73 | 0.757 | 0.717 | 0.742 | 0.657 | 0.883 | 0.694 | 0.845 | 0.729 | 0.47 | 0.461 | 0.464 | 0.441 | 0.454
18 | EPLC-272H | 1.02 | 0.944 | 0.727 | 0.949 | 0.847 | 0.37 | 0.395 | 0.33 | 0.377 | 0.336 | 0.464 | 0.606 | 0.399 | 0.503 | 0.74 | 0.32 | 0.362 | 0.298 | 0.31 | 0.336

From the supplement of paper PMC10307832
